Laboratory results published in patent US20260042764A1, “COMPOSITIONS AND METHODS FOR INHIBITION OF KRAS” (TheRas, Inc., priority 2022, published 2026).

How the values were obtained:
[1] = molecular target: T1, Avi-KRAS WT (2-169) GTP/RAF1 RBD-3xFLAG (51-131) (Homo sapiens, UniProt P01116); test: Raf1-KRAS WT-GTP disruption HTRF assay (Biological Example 3); assay type: binding; conditions: KRAS WT, GTP-loaded
T1 construct: Avi-KRAS WT (2-169)
Method: (§1) Biological Example 3: Disrupting RAS-Effector Binding HTRF Assay
(§2) A protein:protein interaction (PPI) Homogeneous Time Resolved Fluorescence (HTRF) assay was used to determine the effectiveness of compounds in disrupting KRAS protein and effector (RAF1) binding.
(§3) The HTRF assay used the following reagents and proteins: (i) 50 nM Avi-KRAS G12D (2-169) GTP/RAF1 RBD-3xFLAG (51-131): (ii) 50 nM Avi-KRAS G12C (2-169) GTP/RAF1 RBD-3xFLAG (51-131): (iii) 50 nM Avi-KRAS G12V (2-169) GTP/RAF1 RBD-3xFLAG (51-131); (iv) 50 nM Avi-KRAS WT (2-169) GTP/RAF1 RBD-3xFLAG (51-131); and (v) 75 nM 3xFLAG-RAF1 RBD (51-131)-Avi. The assay buffer included: 50 mM Tris pH 7.5 (Invitrogen, 15567-027), 100 mM NaCl (Sigma, S5150-IL), 5 mM MgCl2 (Sigma, 63069), 0.1% BSA (Sigma, A7030), 0.01% Tween 20 (Sigma, P7949), 10% DMSO (Cell Signaling, 12611). The bead buffer included: 50 mM Tris pH 7.5 (Invitrogen, 15567-027), 0.01% Tween 20 (Sigma, P7949). An assay volume of 20 μL was used in a 384 well plate-low volume format. Compound titration: 30-0.005 μM, 3x dilution series.
(§4) The HTRF assay employed the following protocol:
(§5) Compounds were dispensed in assay plate (384-well, Grenier Bio-One #784075) using Echo (model 555) with dose response settings: 200 nL final volume, titration from 30 μM as a 10-point dilution series. Proteins and HTRF reagents were mixed and dispensed onto plates, 20 μL per well, and then incubated for 1 h at room temperature, with 700 rpm shaking.
(§6) Plates were analyzed on an Envision plate reader using the following setting: Excitation 320 nm, Bandwidth 75 nm; Emission 615 nm, Bandwidth 85 nm; Gain 100%; Flashes 100; Lag 60 μs. Data was reported as percentage of activity, with DMSO as 100%. Data was plotted and analyzed using Prism 8.
(§7) The biochemical Raf1-KRAS G12D/G12V/G12C/WT-GTP disruption assay IC50 of selected compounds described herein are shown in Table 12.

SW620 cells (KRAS G12V) = test: Cell-based pERK HTRF assay in SW620 cell (Biological Example 4)
Outline: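 Read-out: HTRF pERK signal (excitation 320 nm, emission 615 nm) from lysates of SW620 cells after 4 h compound exposure. Dose range was 9 points, half-log steps from 1 μM, in 0.25% DMSO; antibody incubation ran 4–24 h at room temperature.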

[2] = molecular target: T2, Avi-KRAS G12C (2-169) GTP/RAF1 RBD-3xFLAG (51-131) (Homo sapiens, UniProt P01116, G12C); test: Raf1-KRAS G12C-GTP disruption HTRF assay (Biological Example 3); assay type: binding; conditions: KRAS G12C, GTP-loaded
T2 construct: Avi-KRAS G12C (2-169)
Method: as §1, §2, §3, §4, §5, §6, §7

[3] = molecular target: T3, Avi-KRAS G12D (2-169) GTP/RAF1 RBD-3xFLAG (51-131) (Homo sapiens, UniProt P01116, G12D); test: Raf1-KRAS G12D-GTP disruption HTRF assay (Biological Example 3); assay type: binding; conditions: KRAS G12D, GTP-loaded
T3 construct: Avi-KRAS G12D (2-169)
Method: as §1, §2, §3, §4, §5, §6, §7

[4] = molecular target: T4, Avi-KRAS G12V (2-169) GTP/RAF1 RBD-3xFLAG (51-131) (Homo sapiens, UniProt P01116, G12V); test: Raf1-KRAS G12V-GTP disruption HTRF assay (Biological Example 3); assay type: binding; conditions: KRAS G12V, GTP-loaded
T4 construct: Avi-KRAS G12V (2-169)
Method: as §1, §2, §3, §4, §5, §6, §7

GP2d cells (KRAS G12D) = test: Cell-based pERK HTRF assay in GP2d cell (Biological Example 2); conditions: GP2d (KRAS G12D) cells
Outline: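 Cells grown in DMEM with 10% FBS were exposed to compound for 60 min at 0.25% DMSO, using a 9-point half-log series starting at 1 μM or 100 nM. Lysates were then mixed with d2 and Eu cryptate antibodies for 4–24 h at room temperature, and pERK was read by HTRF.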

[5] = Homo sapiens, SW-620, SW620 (KRAS G12V) cells

T1 sequence (P01116 2-169 isoform P01116-2): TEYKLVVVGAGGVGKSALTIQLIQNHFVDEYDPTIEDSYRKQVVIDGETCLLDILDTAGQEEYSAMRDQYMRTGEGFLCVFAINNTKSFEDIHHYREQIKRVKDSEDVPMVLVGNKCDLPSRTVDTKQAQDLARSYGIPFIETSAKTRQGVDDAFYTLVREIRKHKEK
T3 sequence (P01116 2-169 isoform P01116-2 G12D): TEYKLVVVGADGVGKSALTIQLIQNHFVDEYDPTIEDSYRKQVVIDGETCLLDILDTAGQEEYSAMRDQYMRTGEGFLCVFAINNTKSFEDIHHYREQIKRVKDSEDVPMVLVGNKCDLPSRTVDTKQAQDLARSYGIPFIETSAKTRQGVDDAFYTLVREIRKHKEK
T4 sequence (P01116 2-169 isoform P01116-2 G12V): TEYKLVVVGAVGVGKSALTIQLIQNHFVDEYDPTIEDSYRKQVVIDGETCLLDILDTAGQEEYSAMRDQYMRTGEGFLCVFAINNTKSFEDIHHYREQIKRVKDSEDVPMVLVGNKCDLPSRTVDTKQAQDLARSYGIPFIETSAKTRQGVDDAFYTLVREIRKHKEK
T2 sequence (P01116 2-169 isoform P01116-2 G12C): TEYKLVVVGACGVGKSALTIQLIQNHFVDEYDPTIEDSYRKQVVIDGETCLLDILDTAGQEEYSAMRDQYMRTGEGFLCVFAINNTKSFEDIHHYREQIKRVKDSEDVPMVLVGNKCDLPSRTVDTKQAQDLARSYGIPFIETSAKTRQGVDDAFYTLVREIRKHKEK

| Compound | IC50 [1] [µM] | IC50 (SW620 cells (KRAS G12V); [5]) [µM] | IC50 [2] [µM] | IC50 [3] [µM] | IC50 [4] [µM] | IC50 (GP2d cells (KRAS G12D); GP2d) [µM] | IC50 (SW620 cells (KRAS G12V); SW620 (KRAS G12V) cells) [µM] | IC50 (GP2d cells (KRAS G12D)) [µM] |
| --- | --- | --- | --- | --- | --- | --- | --- | --- |
| CCN(c1nc(OC[C@@]23CCCN2C[C@H](F)C3)nc2c(F)c(-c3ccc(F)c4sc(N)c(C#N)c34)c(C(F)(F)F)cc12)[C@H]1C=C[C@@H](C(=O)N(C)C)C1 (atropisomer, axis not shown) [Compound 938] | > 10 | 0.1 to 1 | > 10 | 1 to 10 | > 10 | < 0.1 | – | – |
| C/C=C/C(=O)N1C[C@@H](N(CC)c2nc(OC[C@@]34CCCN3C[C@H](F)C4)nc3c(F)c(-c4ccc(F)c5sc(N)c(C#N)c45)c(C(F)(F)F)cc23)C[C@@H]1COC (atropisomer, axis not shown) [Compound 845] | 0.1 to 1 | < 0.1 | 0.1 to 1 | 0.1 to 1 | 0.1 to 1 | < 0.1 | – | – |
| CN(Cc1ccccc1)c1nc(OC[C@@]23CCCN2C[C@H](F)C3)nc2c(F)c(-c3ccc(F)c4sc(N)c(C#N)c34)c(C(F)(F)F)cc12 (atropisomer, axis not shown) [Compound 890] | > 10 | 0.1 to 1 | > 10 | > 10 | > 10 | 0.1 to 1 | – | – |
| CCN(c1nc(OC[C@@]23CCCN2C[C@H](F)C3)nc2c(F)c(-c3ccc(F)c4sc(N)c(C#N)c34)c(C(F)(F)F)cc12)[C@H]1CCN(C(=O)O[C@H](C)C(F)(F)F)C1 (atropisomer, axis not shown) [Compound 850] | 1 to 10 | < 0.1 | 0.1 to 1 | 0.1 to 1 | 1 to 10 | < 0.1 | – | – |
| CCN(c1nc(OC[C@@]23CCCN2C[C@H](F)C3)nc2c(F)c(-c3ccc(F)c4sc(N)c(C#N)c34)c(C(F)(F)F)cc12)[C@H]1C[C@H](C)N(C(=O)C2C[C@H]2F)C1 (stereo partly shown) [Compound 884] | 0.1 to 1 | < 0.1 | ≤ 0.1 | 0.1 to 1 | ≤ 0.1 | < 0.1 | – | – |
| CCN(c1nc(OC[C@@]23CCCN2C[C@H](F)C3)nc2c(F)c(-c3ccc(F)c4sc(N)c(C#N)c34)c(C(F)(F)F)cc12)[C@H]1C[C@H]2CC(C)(C)C(=O)N2C1 (atropisomer, axis not shown) [Compound 864] | 0.1 to 1 | < 0.1 | 0.1 to 1 | ≤ 0.1 | 0.1 to 1 | < 0.1 | – | – |
| N#Cc1c(N)sc2c(F)ccc(-c3c(C(F)(F)F)cc4c(N5CCCC(c6cccnc6)C5)nc(OC[C@@]56CCCN5C[C@H](F)C6)nc4c3F)c12 (stereo partly shown) [Compound 944] | > 10 | 0.1 to 1 | > 10 | > 10 | > 10 | 0.1 to 1 | – | – |
| CCN(c1nc(OC[C@@]23CCCN2C[C@H](F)C3)nc2c(F)c(-c3ccc(F)c4sc(N)c(C#N)c34)c(C(F)(F)F)cc12)C1CCN(C(=O)OC)C1 (stereo partly shown) [Compound 947] | > 10 | – | 1 to 10 | 1 to 10 | > 10 | – | 0.1 to 1 | < 0.1 |
| N#Cc1c(N)sc2c(F)ccc(-c3c(C(F)(F)F)cc4c(N(CCF)[C@H]5CCN(C(=O)[C@@H]6CC6(F)F)C5)nc(OC[C@@]56CCCN5C[C@H](F)C6)nc4c3F)c12 (atropisomer, axis not shown) [Compound 843] | 1 to 10 | < 0.1 | 0.1 to 1 | 0.1 to 1 | 0.1 to 1 | < 0.1 | – | – |
| CCN(c1nc(OC[C@@]23CCCN2C[C@H](F)C3)nc2c(F)c(-c3ccc(F)c4sc(N)c(C#N)c34)c(C(F)(F)F)cc12)[C@H]1CCN(C(=O)C(CF)CF)C1 (atropisomer, axis not shown) [Compound 857] | 0.1 to 1 | < 0.1 | 0.1 to 1 | 0.1 to 1 | 0.1 to 1 | < 0.1 | – | – |
| CCN(c1nc(OC[C@@]23CCCN2C[C@H](F)C3)nc2c(F)c(-c3ccc(F)c4sc(N)c(C#N)c34)c(C(F)(F)F)cc12)[C@H]1C[C@H](C(=O)N(C)C)C1 (atropisomer, axis not shown) [Compound 950] | 0.1 to 1 | – | 0.1 to 1 | 0.1 to 1 | 0.1 to 1 | – | – | – |
